# Results: patent US20080176251A1, “Preparation of high purity phenothiazine N-alkylsulfonates and their use in chemiluminescent assays for the measurement of peroxidase acitivity” (Cyanagen Srl, priority 2007, published 2008)
# Columns and labels:
# peroxidase enzyme = conditions: phenothiazine present as impurity in the enhancer; according to U.S. Pat. No. 6,432,662; cited from earlier work
# [1] = tested on: horseradish peroxidase (HRP-Type VIIA); assay: luminol-peroxide-peroxidase chemiluminescent reaction, dependence on enhancer concentration (Example 3); assay type: biochemical; conditions: 2.50 mM luminol, 2.00 mM perborate, pH 8.6
# Method: All measurements reported in Example 3 were carried out with a spectrofluorimeter (Varian Eclipse), Bio/Chemiluminescence Mode (wavelength of emission: 425 nm; emission slit: 20 nm). A series of substrates in 0.1 M, pH 8.6 Tris Buffer is prepared, with the following compositions: • [luminol sodium salt]=2.50 mM • [sodium perborate]=2.00 mM • 3-(phenothiazin-10-yl)propane-1-sulfonate=11.5 μM, 23 μM, 47 μM, 94 μM, 188 μM, 375 μM, 1500 μM e 3000 μM.
# To a polymethylmethacrylate fluorimetry cuvette of containing 2 mL of each substrate, is added 10 μL of a solution of 0.5 μg/mL of horseradish peroxidase (HRP-Type VIIA). After mixing the solution with a vortex for a few seconds, measurement of the luminescent signal is initiated. […] The dependence of the chemiluminescent signal (plateau value) for each substrate, is reported graphically in FIG. 1. The luminescent signal grows very rapidly with increasing concentration of the enhancer, 3-(phenothiazin-10-yl)propane-1-sulfonate, until it reaches a maximum value between 0.5 and 1 mM. Further raising the concentration of the enhancer, the chemiluminescent signal begins to decline slowly. At the highest concentration of enhancer, 3.0 mM, the signal is approximately 70% of the maximum value.
# [2] = tested on: horseradish peroxidase (HRP-Type VIIA); assay: enhanced luminol-peroxide-peroxidase chemiluminescent reaction, dependence on luminol concentration (Example 4); assay type: biochemical
# Method: All measurements reported in Example 4 were carried out with a spectrofluorimeter (Varian Eclipse), Bio/Chemiluminescence Mode (wavelength of emission: 425 nm; emission slit: 20 nm). A series of substrates in 0.1 M, pH 8.6 Tris Buffer is prepared, with the following compositions: • [luminol sodium salt]=0.625 mM, 1.25 mM, 2.50 mM, 5.0 mM, 10 mM. • [sodium perborate]=2.00 mM • 3-(phenothiazin-10-yl)propane-1-sulfonate=0.75 mM
# To a polymethylmethacrylate fluorimetry cuvette of containing 2 mL of each substrate, is added 10 μL of a solution of 0.5 μg/mL of horseradish peroxidase (HRP-Type VIIA). After mixing the solution with a vortex for a few seconds, measurement of the luminescent signal is initiated. […] The dependence of the chemiluminescent signal (plateau value) for each substrate, is reported graphically in FIG. 2. The luminescent signal gradually grows very rapidly with increasing concentration of the luminol, until it reaches a maximum value between 0.5 and 1 mM. Further raising the concentration of the enhancer, the chemiluminescent signal begins to decline slowly. At the highest concentration of enhancer, 3.0 mM, the signal is approximately 70% of the maximum value. The luminescent signal grows gradually, and reaches a plateau at the highest concentration of luminol used in the experiment, 10 mM.
# [3] = tested on: horseradish peroxidase (HRP-Type VIIA); assay: pH dependence of the enhanced luminol-peroxide-peroxidase chemiluminescent reaction (Example 5); assay type: biochemical; conditions: 5.0 mM luminol, 4.00 mM perborate, 1.50 mM enhancer; all pH values
# Method: All measurements reported in Example 5 were carried out with a fluorimeter (Varian Eclipse), Bio/Chemiluminescence Mode (wavelength of emission: 425 nm; emission slit: 10 nm; emission filter: open; photomultiplier voltage: medium). A series of substrates in 0.125 M, pH 9.1 Tris Buffer is prepared, with the following composition: • [luminol sodium salt]=5.0 mM. • [sodium perborate]=4.00 mM • 3-(phenothiazin-10-yl)propane-1-sulfonate=1.50 mM
# A series of polymethylmethacrylate fluorimetry cuvettes is prepared, each containing of containing 2 mL of substrate. To each cuvette is added a small amount of 5M or 12M HCl, in order to adjust the pH to the following values: 9.02, 8.76, 8.51, 8.41, 8.28, 8.14 and 7.95, and limiting changes in the total volume to less than 5%. Then to each cuvette are added 10 μL of a 0.5 μg/mL solution of horseradish peroxidase (HRP-Type VIIA). After mixing the solution with a vortex for a few seconds, measurement of the luminescent signal is initiated. […] From the results obtained, which are shown in FIG. 3, it is evident that the chemiluminescent signal reaches the maximum value in the range between pH 8.3 and pH 8.6.
# peroxidase = conditions: results obtained by Fujirebio, U.S. Pat. No. 5,171,668; cited from earlier work
Structure (SMILES),effect on the peroxidase enzyme (peroxidase enzyme),time course of the chemiluminescent signal ([1]; all enhancer concentrations),"chemiluminescent signal relative to the maximum value ([1]; highest concentration of enhancer, 3.0 mM)","time course of the chemiluminescent signal ([2]; 0.75 mM enhancer, 2.00 mM perborate, luminol 0.625-10 mM, pH 8.6)","luminol concentration at which the luminescent signal reaches a plateau ([2]; 0.75 mM enhancer, 2.00 mM perborate, pH 8.6, highest luminol concentration used) [mM]","chemiluminescent signal relative to the maximum value ([2]; as printed in Example 4: highest concentration of enhancer, 3.0 mM)",time course of the chemiluminescent signal [3],enhancement of luminol chemiluminescence compared with standard enhancer 4-iodophenol (peroxidase)
c1ccc2c(c1)Nc1ccccc1S2 [phenothiazine],deactivates the peroxidase enzyme,,,,,,,
O=S(=O)([O-])CCCN1c2ccccc2Sc2ccccc21.[Na+] [sodium 3-(phenothiazin-10-yl)propane-1-sulfonate],,"reaches a plateau within a few minutes, and then remains stable for at least thirty minutes",approximately 70%,"reaches a plateau within a few minutes, and then remains stable for at least thirty minutes",10,approximately 70%,reaches a constant value within a few seconds,not significantly better than those observed with a standard enhancer such as 4-iodophenol
